Experimental data from patent US6087355A, “Cephalosporin antibiotics” (Microcide Pharmaceuticals, Inc., priority 1996, dated 2000).
Counter-ions that a name gives are not always drawn.

Columns and labels:
[1] = tested on: S. aureus Col8A(Meth^S)(lac^-); test: In vitro MIC, agar dilution; type: cell-based
Outline: (§1)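 Two-fold dilutions (128 to ≤0.25 μg/mL, in duplicate) were poured into Mueller-Hinton agar. Log-phase broth cultures were spot-inoculated at about 10^4 cfu per spot and incubated 35-36°C for 16-20 hours; the MIC was the lowest concentration inhibiting growth. Col is a high-level PBP2a producer; Col 8A is its isogenic PBP2a-lacking partner.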

[2] = tested on: E. coli ATCC 25992; test: In vitro MIC, agar dilution; type: cell-based; settings: Escherichia coli, ATCC25992, read-out: minimum inhibitory concentration (MIC)
Outline: (§2)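 Test agent, dissolved in PBS pH 7.2 with Tween 20 or DMSO if needed, was mixed into molten Mueller-Hinton agar over a two-fold series topping at 128 μg/mL. Log-phase isolates were then spot-inoculated at ~10^4 cfu and incubated at 35-36 °C for 16-20 hours.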

[3] = tested on: E. faecalis ATCC 29212; test: In vitro MIC, agar dilution; type: cell-based; settings: Enterococcus faecalis, ATCC29212, read-out: minimum inhibitory concentration (MIC)
Outline: as §2

[4] = tested on: E. faecium A491(Amp^R); test: In vitro MIC, agar dilution; type: cell-based; settings: Enterococcus faecium, read-out: minimum inhibitory concentration (MIC)
Outline: as §2

[5] = tested on: E. faecium ATCC 35667; test: In vitro MIC, agar dilution; type: cell-based; settings: Enterococcus faecium, ATCC35667, read-out: minimum inhibitory concentration (MIC)
Outline: as §2

[6] = tested on: E. faecium VanA(Van^R); test: In vitro MIC, agar dilution; type: cell-based; settings: Enterococcus faecium, read-out: minimum inhibitory concentration (MIC)
Outline: as §2

[7] = tested on: P. aeruginosa ATCC 27853; test: In vitro MIC, agar dilution; type: cell-based; settings: Pseudomonas aeruginosa, ATCC27853, read-out: minimum inhibitory concentration (MIC)
Outline: as §2

[8] = tested on: S. aureus 76(Meth^R)(lac^+); test: In vitro MIC, agar dilution; type: cell-based; settings: Staphylococcus aureus, read-out: minimum inhibitory concentration (MIC)
Outline: as §2

[9] = tested on: S. aureus ATCC 13709(Meth^S); test: In vitro MIC, agar dilution; type: cell-based; settings: Staphylococcus aureus, ATCC13709, S. aureus ATCC 13709(Meth^S); read-out: minimum inhibitory concentration (MIC)
Outline: as §2

[10] = tested on: S. aureus ATCC 29213; test: In vitro MIC, agar dilution; type: cell-based; settings: Staphylococcus aureus, ATCC29213, read-out: minimum inhibitory concentration (MIC)
Outline: as §2

[11] = tested on: S. aureus ATCC 33593(Meth^R); test: In vitro MIC, agar dilution; type: cell-based; settings: Staphylococcus aureus, ATCC33593, read-out: minimum inhibitory concentration (MIC)
Outline: as §2

[12] = tested on: S. aureus PC1(Meth^S)(lac^+); test: In vitro MIC, agar dilution; type: cell-based; settings: Staphylococcus aureus, read-out: minimum inhibitory concentration (MIC)
Outline: as §2

[13] = tested on: S. aureus Spain #356(Meth^R); test: In vitro MIC, agar dilution; type: cell-based; settings: Staphylococcus aureus, read-out: minimum inhibitory concentration (MIC)
Outline: as §2

[14] = tested on: S. haemolyticus 05(Meth^R); test: In vitro MIC, agar dilution; type: cell-based; settings: Staphylococcus haemolyticus, read-out: minimum inhibitory concentration (MIC)
Outline: as §2

[15] = tested on: S. aureus Col(Meth^R)(lac^-); test: In vitro MIC, agar dilution; type: cell-based; settings: Staphylococcus aureus, read-out: minimum inhibitory concentration (MIC)
Outline: as §1

[16] = tested on: E. faecalis VanB(Van^R); test: In vitro MIC, agar dilution; type: cell-based; settings: Enterococcus faecalis, read-out: minimum inhibitory concentration (MIC)
Outline: as §2

[17] = tested on: S. aureus strain ATCC 13709 (methicillin-susceptible); test: Murine model for lethal bacteremic peritonitis; type: in vivo, female Swiss-Webster mice; settings: Staphylococcus aureus, ATCC13709, SC, 72 h; for responders at 1.25 mg/kg: read-out: Survivors (converted); for ED50: two equal doses, IP challenge, read-out: ED50
Protocol: Groups of 5 female Swiss-Webster mice (Simonsen, Gilroy, Calif.) each are challenged by the intraperitoneal (IP) route with tenfold increments of a bacterial inoculum. This permits calculation of the mean lethal dose (LD50) and the LD100. For preliminary evaluation of a new antibiotic, mice are challenged IP with an LD100 titer of bacteria. In two equal doses administered at the time of bacterial challenge and 2 hours later, groups of 10 mice each are treated subcutaneously with two-fold increments of the test drug and an antibiotic of known efficacy in mice and humans (i.e., positive control). Mice are observed for 72 h. Those alive at 72 h are considered long term survivors. The total drug dose in mg/kg that protects 50% of mice in a group from death is termed the mean protective dose (PD50). PD50 s are similarly determined for several pathogens. The quantitative endpoints for the new drug are then compared with those obtained with reference antibiotics.
Six ten-fold dilutions of inoculum suspended in 0.5 mL of sterilized 7% hog gastric mucin (Sigma) are injected IP in groups of 5 mice each. A control group of 5 mice receive mucin alone. Mice are observed for 72 h. Those alive at 72 h are considered long term survivors. The mean lethal dose (LD50) and 100% lethal dose (LD100) are determined by the probit test.
For antibiotic efficacy studies, mice are challenged IP with bacterial titers that will afford an LD100 for the test strain. In two equal doses administered at the time of bacterial challenge and 2 hours later, groups of 10 mice each are treated by the subcutaneous route (SC) with twofold increments of the test antibiotic; another group is treated similarly with a reference antibiotic of known efficacy in animals and man. Drug doses can range from 0.01 to 512 mg/kg. If the drug is poorly soluble, Tween 20 or propylene glycol will be employed to solubilize the drug. Animals are observed for 72 h. The 50% protective dose (PD50) is calculated in mg/kg by the probit method. The PD50 is the same as the 50% effective dose (ED50) and the 50% curative dose (CD50). Samples of blood from the hearts of all animals that die and from half the mice that survive are cultured on brain-heart infusion agar. Animals that received a protective dosage of the test drug will be alive at 72 h, although they may appear moderately ill to very ill during the observation period. […] Most of these mice will die within 6 to 48 h. Those alive at 72 h will be considered long term survivors.
(Compound numbers correspond to those in MIC tables; data reported for challenge with methicillin-susceptible S. aureus strain ATCC 13709.)

SMILES | MIC [2] [µg/mL] | MIC [3] [µg/mL] | MIC [4] [µg/mL] | MIC [5] [µg/mL] | MIC [6] [µg/mL] | MIC [7] [µg/mL] | MIC [8] [µg/mL] | MIC [9] [µg/mL] | MIC [10] [µg/mL] | MIC [11] [µg/mL] | MIC [12] [µg/mL] | MIC [13] [µg/mL] | MIC [14] [µg/mL] | MIC [15] [µg/mL] | MIC [16] [µg/mL] | responders at 0.3125 mg/kg ([17]; read-out: Survivors) [%] | responders at 0.625 mg/kg ([17]; read-out: Survivors) [%] | responders at 1.25 mg/kg [17] [%] | responders at 2.5 mg/kg ([17]; read-out: Survivors) [%] | ED50 [17] [mg/kg] | other results
CO/N=C(\C(=O)N[C@@H]1C(=O)N2C(C(=O)O)=C(COC(C)=O)CS[C@H]12)c1csc(N)n1 [Cefotaxime, cefotaxime, reference compound] | – | – | – | – | – | – | – | – | – | – | – | – | – | – | – | – | – | – | – | – | responsiveness of S. aureus Col 8A strain ([1]; in words): highly responsive
NCCCCCOCc1cnccc1SC1=C(C(=O)O)N2C(=O)[C@@H](NC(=O)/C(=N\O)c3nc(N)sc3Cl)[C@H]2SC1 [Cmpd 44, (7R)-7-[(Z)-2-(2-amino-5-chlorothiazol-4-yl)-2-(hydroxyimino)acetamido]-3-(3-(5-aminopentyloxymethyl)pyrid-4-ylthio)-3-cephem-4-carboxylate, trifluoroacetic acid salt] | 8 | 0.13 | 16 | 4 | 2 | > 32 | 4 | 2 | 0.5 | 4 | 2 | 4 | 8 | 4 | – | – | – | – | – | – | MIC ([1]; Staphylococcus aureus, S. aureus Col8A(Meth^S)(lac^-), read-out: minimum inhibitory concentration (MIC)): 0.5 µg/mL
N=C(N)SCc1cnccc1SC1=C(C(=O)O)N2C(=O)[C@@H](NC(=O)/C(=N\O)c3csc(N)n3)[C@H]2SC1 [Cmpd 3, (7R)-7-[(Z)-2-(aminothiazol-4-yl)-2-(hydroxyimino)acetamido]-3-(3-isothioureidomethylpyrid-4-ylthio)-3-cephem-4-carboxylate, trifluoroacetic acid salt] | 2 | 0.5 | > 32 | 2 | 8 | > 32 | 8 | 0.5 | 0.5 | 8 | 0.5 | 8 | 8 | 8 | 1 | 50 | 80 | 70 | 90 | 0.42 | responders at 0.156 mg/kg ([17]; Dose 0.156 mg/kg, read-out: Survivors): 0%
NCCSCc1cnccc1SC1=C(C(=O)O)N2C(=O)[C@@H](NC(=O)/C(=N\O)c3ccccc3)[C@H]2SC1.O=C(O)C(F)(F)F [Cmpd 26, (7R)-7-[(Z)-2-phenyl-2-(hydroxyimino)acetamido]-3-(3-aminoethylthiomethylpyrid-4-ylthio)-3-cephem-4-carboxylate, trifluoroacetic acid salt] | > 32 | ≤ 0.06 | 8 | 0.25 | 0.5 | > 32 | 1 | ≤ 0.06 | 0.13 | 1 | 0.13 | 1 | 2 | 0.5 | 0.13 | 10 | 50 | 50 | 70 | 1.06 | responders at 5 mg/kg ([17]; read-out: Survivors): 90%
CNCCSCc1cnccc1SC1=C(C(=O)O)N2C(=O)[C@@H](NC(=O)/C(=N\O)c3csc(N)n3)[C@H]2SC1 [Cmpd 15, (7R)-7-[(Z)-2-(aminothiazol-4-yl)-2-(hydroxyimino)acetamido]-3-(3-methylaminoethylthiomethylpyrid-4-ylthio)-3-cephem-4-carboxylate, trifluoroacetic acid salt] | 8 | 2 | > 32 | 2 | 4 | > 32 | 4 | 0.5 | 1 | 4 | 1 | 4 | 8 | 4 | 0.5 | 20 | 0 | 20 | 50 | 4.63 | responders at 5 mg/kg ([17]; read-out: Survivors): 50%
NCC(=O)NCCSCc1cnccc1SC1=C(C(=O)O)N2C(=O)[C@@H](NC(=O)/C(=N\O)c3nc(N)sc3Cl)[C@H]2SC1 [Cmpd 29, (7R)-7-[(Z)-2-(2-amino-5-chlorothiazol-4-yl)-2-(hydroxyimino)acetamido]-3-[3-(glycyl)aminoethylthiomethylpyrid-4-ylthio]-3-cephem-4-carboxylate, trifluoroacetic acid salt] | 8 | ≤ 0.06 | 4 | 0.25 | 0.5 | > 32 | 1 | 0.13 | 0.25 | 2 | 0.25 | 2 | 2 | 1 | ≤ 0.06 | 20 | 50 | 90 | 90 | 1.26 | responders at 5 mg/kg ([17]; read-out: Survivors): 70%
CNCCNCCSCc1cnccc1SC1=C(C(=O)O)N2C(=O)[C@@H](NC(=O)/C(=N\O)c3nc(N)sc3Cl)[C@H]2SC1 [Cmpd 57, (7R)-7-[(Z)-2-(2-amino-5-chlorothiazol-4-yl)-2-(hydroxyimino)acetamido]-3-(3-(N-methylaminoethylaminoethylthiomethyl)pyrid-4-ylthio)-3-cephem-4-carboxylate, trifluoroacetic acid salt] | 4 | 0.13 | 16 | 1 | 2 | > 32 | 4 | 0.5 | 1 | 4 | 1 | 4 | 8 | 4 | 4 | 40 | 40 | 40 | 50 | 1.08 | responders at 5 mg/kg ([17]; read-out: Survivors): 90%
